The text below walks through data of EP2570413A1, “Benzothiazinone derivatives as anti-tuberculosis agents” (The University Of Queensland, priority 2011, dated 2013).

Converted amounts (≈) assume the structure as drawn. A value given as a limit tells only on which side of the number the result lay.

The nature of data set [1]: Chemical stability in NaCl/HCl/pepsin. The format is physicochemical.
The next data set concerns M. vaccae 10670. The data set is described as follows: MIC assay, broth microdilution. The format is cell-based. As to conditions: for MIC: Mycolicibacterium vaccae, 10670. On the technique in general: In broth dilution the organism is exposed to a series of concentrations in liquid medium.
In data set [2] the test system is M. smegmatis SG987. The data set can be described thus: MIC assay, broth microdilution. The format is cell-based, Mycobacterium smegmatis. As to conditions: for MIC: Mycolicibacterium smegmatis, SG987, read-out: MIC M. smeg. SG987. The source says: The protocol used is the broth microdilution method in microtiter plates (MTP), based upon that detailed by the CLSI (Clinical and Laboratory Standards Institute (CLSI). 2006. Methods for Dilution Antimicrobial Susceptibility Tests for Bacteria that Grow Aerobically; Approved Standard. 7th edn. Document M7-A6. Clinical and Laboratory Standards Institute, Wayne, PA.).
Strain: Mycobacterium smegmatis, ATCC 700084, or other Mycobacterium strains (see table below).
Medium: The bacteria culture and the MIC were done using the following medium: MHB - Mueller-Hinton Broth + 0.05% Tween80, purchased from Difco, Tween80 has been added to avoid clumping of the bacteria.
This highest concentration is filled in the first row of the microtiter plate and further diluted in the culture medium for the Mycobacteria (Mueller-Hinton Broth and Middlebrook 7H9 broth). All solutions are freshly prepared under sterile conditions.
Resazurin salt powder (Sigma) is prepared at 0.01 % (wt/vol) in distilled water, sterilized by filtration through a 0.22 µm membrane and stored at 4°C for a week.
Ciprofloxacin, isoniaz-d and rifampicin can be used as reference compounds for control of the assay as well as a solvent control. Minimal inhibitory concentrations (MIC) are determined by the broth microdilution method. 50 µl of the compound solution in DMSO/MeOH are serially diluted directly in the microtiter plate by factor two with Mueller-Hinton broth (MHB)(Difco). Then the wells are inoculated with 50 µl of test organisms in MHB to give a final concentration of 5x10^5 CFU/ml. After microtiter plates are incubated at 37°C for 48 h, the optical density of each well is measured with a Nepheloscan Ascent 1.4 automatic plate reader (Labsystems, Vantaa, Finland). Then 30 µl of resazurin solution is added to each well and plates are allowed to incubate at 37°C for additional 24 h. A change from blue to pink indicates reduction of resazurin and therefore bacterial growth. The MIC is defined as the lowest drug concentration that prevents this colour change.

A short description of data set [3]: Metabolic stability, mouse. The format is in vitro ADME.
A further data set concerns MDR M. tuberculosis. The data set can be described thus: MIC assay, broth microdilution. The format is cell-based. As to conditions: for MIC: Mycobacterium tuberculosis, read-out: MIC M. 1b.
Another data set can be described thus: Plasma stability, human. The format is in vitro ADME.
The nature of data set [4]: Metabolic stability, human. The format is in vitro ADME.
Data set [5] has as its system M. smegmatis SG987. The data set can be described thus: Agar diffusion assay. The format is cell-based, Mycobacterium smegmatis. The note with it: for zone of inhibition at 1 µg/mL: Mycolicibacterium smegmatis; for colonies in the inhibition zone: at 1 µg/ml. On the set-up: key to colonies in the inhibition zone: (p): few colonies in the inhibition zone; p: colonies in the inhibition zone; P: many colonies in the inhibition zone; A: faint indication of inhibition zone. On the procedure: Antimicrobial activity is additionally determined by agar diffusion tests according to: European Pharmacopoeia, 3rd edition, 1997; 13, 118, Deutscher Apotheker Verlag Stuttgart
100 µl suspension of the test organism M. smegmatis SG987 with a density of McFarland standard 0.5 are inoculated into 34 ml of sterile melted agar medium (Nutrient agar from Serva Electrophoresis GmbH, Heidelberg, Germany) and poured into Petri dishes. Wells of 9 mm in diameter are cut in the agar and filled with 50 µl of the compound solution (for concentrations see Table 2). Compounds are dissolved in DMSO in a concentration of 1 mg/ml and further diluted in methanol to the final concentration. Growth inhibition zones around the agar wells are read after overnight incubation at 37°C.
(In general: In agar diffusion tests the substance spreads into inoculated agar from a disc or well.)

A short description of a further data set: Plasma stability, mouse. The format is in vitro ADME.
The subject of another data set is M. aurum. The data set is described as follows: MIC assay, broth microdilution. The format is cell-based. As to conditions: Mycolicibacterium aurum.
In the next data set the test system is M fort. The data set can be described thus: MIC assay, broth microdilution. The format is cell-based.
The test system of the next data set is M. tuberculosis H37Rv. The data set is described as follows: In-vivo mouse survival. As to conditions: 50 img/kg.
For another data set, the system named is Mycobacteria. The note with it: existing anti-tuberculosis drugs, comparison values; cited from earlier work.
Setting [6] is: Test compound 5 µM in 35mM NaCl, 85 mM HCl, appr. 2000 U pepsin.
Where [7] appears, read: Mouse, test compound 1 µM in NADP (1.3 mM), G6P 3.3 mM, G6PDHase, DMSO.
Setting [8] is: Human, test compound 5 µM in plasma.
The mark [9] stands for this setting: Human, test compound 1 µM in NADP (1.3 mM), G6P 3.3 mM, G6PDHase, DMSO.
The mark [10] stands for this setting: Mouse, test compound 5 µM in plasma.

By MIC is commonly meant the lowest concentration that inhibits growth of the organism. For orientation: zone of inhibition means the extent of the growth-free halo in a diffusion test. Regarding `O=c1nc(N2CCC(c3ccc(Cl)cc3)CC2)sc2c([N+](=O)[O-])cc(C(F)(F)F)cc12` [Compound 2], the “Chemical Stability” value in [1] (setting [6]) amounted to 52%. In addition, in the data set on M. vaccae 10670 (M. vaccae 10670), the “MIC M. vaccae 10670” value is on record as below 0.0012 ng/mL. Also, the values for the MIC with M. vaccae 10670, in the data set on M. smegmatis SG987 [2] and in the data set with MDR M. tuberculosis were below 0.0012 ng/mL, below 5 ng/mL and 4 ng/mL (≈ 8.51 nM), respectively. Also, the “MIC M. smeg. SG987” value with M. smegmatis SG987 [2] (M. smeg. SG987) is below 5 ng/mL. Further, in data set [3] (setting [7]), the “Metabolic Stability Mouse” value stood at 39%. In the data set with MDR M. tuberculosis (M. 1b., MDR M. tuberculosis), the “MIC M. 1b.” value turned out to be 4 ng/mL (≈ 8.51 nM). Further, the “Plasma Stability Human” value in the data set “Plasma stability, human” (setting [8]) stood at 86%. Moreover, the “Metabolic Stability Human” value in [4] (setting [9]) was 59%. This compound also gave a zone of inhibition at 1 µg/mL in the data set on M. smegmatis SG987 [5] of 22 mm. In addition, the “Plasma Stability Mouse” value in “Plasma stability, mouse” (setting [10]) was 88%.

On to `O=C(O)c1cn(C2CC2)c2cc(N3CCNCC3)c(F)cc2c1=O` [III (Ref.), ciprofloxacin, reference compound], for which the MIC in the data set with M. smegmatis SG987 [2] was 200 ng/mL (≈ 604 nM). In addition, in the data set with M. smegmatis SG987 [5], the zone of inhibition at 1 µg/mL is 20 mm and the “colonies in the inhibition zone” value is “p”.

In the case of `C[C@H]1COC2(CCN(c3nc(=O)c4cc(C(F)(F)F)cc([N+](=O)[O-])c4s3)CC2)O1` [I (Ref.), reference compound], the “Chemical Stability” value in [1] (5 µM) is 98%. Further, the MIC is 0.625 ng/mL (≈ 1.45 nM) in the data set on M. vaccae 10670; below 5 ng/mL with M. smegmatis SG987 [2]; below 15 ng/mL with MDR M. tuberculosis; above 100000 ng/mL in the data set on M. aurum; 1.56 ng/mL (≈ 3.62 nM) in the data set on M fort.. The “Metabolic Stability Mouse” value in data set [3] (mouse, 1 µM) was 97%. Besides, the “Plasma Stability Human” value in “Plasma stability, human” (human, 5 µM) came to 98%. For the same compound, the “Metabolic Stability Human” value in [4] (human, 1 µM) is listed as 107%. Also, the zone of inhibition at 1 µg/mL in the data set on M. smegmatis SG987 [5] was 17 mm. Moreover, in the data set on M. smegmatis SG987 [5], the “colonies in the inhibition zone” value was “p-P”. Further, in “Plasma stability, mouse” (mouse, 5 µM), the “Plasma Stability Mouse” value came to 45%.

In the case of `O=c1nc(N2CCN(Cc3ccccc3)CC2)sc2c([N+](=O)[O-])cc(C(F)(F)F)cc12` [II (Ref.), reference compound], the minimum inhibitory concentration (MIC) against M. vaccae 10670, in the data set with M. smegmatis SG987 [2] and in the data set with M fort. was 50 ng/mL (≈ 111 nM) each time.

On to `O=c1nc(N2CCC(c3ccccc3)CC2)sc2c([N+](=O)[O-])cc(C(F)(F)F)cc12` [Compound 1], for which the “Chemical Stability” value in [1] (setting [6]) worked out at 82%. Besides, the MIC is 0.4 ng/mL (≈ 0.919 nM) in the data set on M. vaccae 10670; 4 ng/mL (≈ 9.19 nM) in the data set on M. smegmatis SG987 [2]; below 15 ng/mL in the data set with MDR M. tuberculosis; above 100 ng/mL against M. aurum; 12.5 ng/mL (≈ 28.7 nM) against M fort.. Besides, in [3] (setting [7]), the “Metabolic Stability Mouse” value is recorded as 75%. In addition, the “Plasma Stability Human” value in “Plasma stability, human” (setting [8]) is 96%. The “In-vivo Mouse Survival 4 wks” value in the data set on M. tuberculosis H37Rv is recorded as 4 of 10. In addition, the “Metabolic Stability Human” value in [4] (setting [9]) is given as 120%. For the same compound, in “Plasma stability, mouse” (setting [10]), the “Plasma Stability Mouse” value was 71%.

For `O=c1nc(N2CCC(c3ccc(F)c(F)c3)CC2)sc2c([N+](=O)[O-])cc(C(F)(F)F)cc12` [Compound 5], in data set [1] (setting [6]), the “Chemical Stability” value is given as 63%. Further, the figures for the MIC with M. vaccae 10670, in the data set on M. smegmatis SG987 [2] and with MDR M. tuberculosis were below 0.0012 ng/mL, below 5 ng/mL and 8 ng/mL (≈ 17 nM), respectively. For the same compound, in data set [3] (setting [7]), the “Metabolic Stability Mouse” value is reported as 28%. Also, in “Plasma stability, human” (setting [8]), the “Plasma Stability Human” value amounted to 124%. For the same compound, in data set [4] (setting [9]), the “Metabolic Stability Human” value turned out to be 49%. The compound further yielded a zone of inhibition at 1 µg/mL in the data set with M. smegmatis SG987 [5] of 27 mm. Also, the “Plasma Stability Mouse” value in the data set “Plasma stability, mouse” (setting [10]) is 111%.

As for `NNC(=O)c1ccncc1` [isoniazid], in the data set on Mycobacteria, the MIC is 20 to 200 ng/mL.
